Reference: ChEMBL document CHEMBL4145663, “Sweet Binders: Carbonic Anhydrase IX in Complex with Sucralose” (ACS Med Chem Lett, 2018)

Experiments:
Carbonic anhydrase 9 = Carbonic anhydrase 9 (Homo sapiens, UniProt Q16790); test: Binding affinity to carbonic anhydrase 9 (unknown origin) expressed in Escherichia coli BL21 (DE3)
Carbonic anhydrase 2 = Carbonic anhydrase 2 (Homo sapiens, UniProt P00918); test: Binding affinity to carbonic anhydrase 2 (unknown origin)

Ki (Carbonic anhydrase 9) [µM]	Ki (Carbonic anhydrase 2) [µM]	SMILES
2.2	0.3	OC[C@H]1O[C@H](O[C@]2(CCl)O[C@H](CCl)[C@@H](O)[C@@H]2O)[C@H](O)[C@@H](O)[C@H]1Cl [SUCRALOSE]
> 20	> 20	OC[C@H]1O[C@@](CO)(O[C@H]2O[C@H](CO)[C@@H](O)[C@H](O)[C@H]2O)[C@@H](O)[C@@H]1O [SUCROSE]
